Assay results reported in patent US20130273649A1, “Culture medium for pluripotent stem cells” (UNIVERSITY OF SOUTHERN CALIFORNIA, priority 2012, published 2013).

How the values were obtained:
[1] = tested on: Axin1; assay: Western blot of Axin1 in mouse EpiSCs; assay type: cell-based; details: CD1 mouse EpiSCs treated 12 h
Procedure: (A) TOPFlash™ assay in CD1 mouse EpiSCs treated with the indicated inhibitors for 12 hours. Data represent mean±s.d. of three biological replicates. (B) Representative phase contrast images of CD1 mouse EpiSCs cultured in the indicated conditions for 7 days. (C) Western blot analysis of CD1 mouse EpiSCs treated with the indicated inhibitors for 12 h. (D) qRT-PCR analysis of Axin1 and Axin2 mRNA levels in CD1 mouse EpiSCs stably transfected with Axin1 shRNA or Axin2 shRNA. Data represent mean±s.d. of three biological replicates. (E) Colony assay on CD1 mouse EpiSCs stably transfected with scramble, Axin1, or Axin2 shRNAs. Cells were plated onto a 6-well plate at a density of 5,000 cells/well and cultured in CHIR/IWR-1. Colonies were counted 7 days after plating. Data represent the total combined numbers of colonies from two independent experiments in which each shRNA-transfected group was cultured in one well of a 6-well plate. (F) Representative phase contrast images of CD 1 mouse EpiSCs stably transfected with the indicated shRNAs and cultured in CHIR/IWR-1 for 7 days. (G) Western blot analysis of CD1 mouse EpiSCs overexpressing Flag-tagged Axin1 or Axin2. (H) Representative phase contrast images of CD1 mouse EpiSCs overexpressing Axin1 or Axin2 and cultured in CHIR for 7 days. Axin2-overexpressing EpiSCs could be continually passaged in CHIR alone. Scale bars, 50 μm (B, F and H)
Next, we investigated the mechanism by which CHIR/XAV promotes EpiSC self-renewal. By inhibiting GSK3 phosphorylation of β-catenin, CHIR stabilizes β-catenin, which then trans-locates to the nucleus and forms complexes with DNA-binding proteins, including TCFs, to activate transcription (Logan and Nusse, 2004). […] Axin has two isoforms, Axin1 and Axin2. […] The expression level of Axin2, but not Axin1, was also elevated by CHIR treatment (FIG. 4C), an outcome consistent with previous findings that Axin2 is a direct downstream target of Wnt/β-catenin signaling (Jho et al., 2002). […]

[2] = tested on: CD1 EpiSCs; assay: Clonogenicity: colony formation after single-cell deposition of EpiSCs; assay type: cell-based, mouse; details: 96-well plate, CHIR only
Procedure: (A) Representative phase-contrast images of CD1 mouse EpiSCs cultured in the indicated conditions. […] (B) Phase-contrast image showing differentiating CD1 mouse EpiSCs at the 2nd passage in GMEM/10% FBS with 2 μM XAV. (C) CD1 mouse EpiSCs were cultured in CHIR/XAV for 7 passages and were subsequently immunostained with indicated antibodies against pluripotency markers. (D) Numbers of undifferentiated colonies formed by day 9 after single-cell deposition of CD1 EpiSCs into 0.1% gelatin-coated 96-well plates and cultured in the conventional mouse ESC medium supplemented with the indicated small molecules or cytokines Results are shown as mean±s.d. of six biological replicates. (E) De novo derivation of mouse EpiSCs. Epiblast tissue (outlined in dashed line) of the E5.75 CD1 mouse embryo was dissected and cultured in CHIR/XAV. The outgrowth formed from the plated epiblast (middle panel) was disaggregated to establish a stable EpiSC line (right panel). Thirteen […] established from 13 plated CD1 mouse embryos. Scale bars, 50 μ[…]). See also FIG. 8. We compared the clonogenicity of EpiSCs cultured in different conditions. […] EpiSC colonies formed in CHIR/XAV were readily expanded to establish stable cell lines. […] As expected, in the CHIR/XAV condition, EpiSCs were readily derived from embryonic day (E) 5.75 embryos of CD1 and 129SvE mice (FIGS. 1E and 8B). […]

| SMILES | amount of Axin1 protein [1] | undifferentiated colony formation from single EpiSC [2] |
| --- | --- | --- |
| Oc1nc(-c2ccc(C(F)(F)F)cc2)nc2c1CSCC2 [XAV939, 3,5,7,8-Tetrahydro-2-[4-(trifluoromethyl)phenyl]-4H-thiopyrano[4,3-d]pyrimidin-4-one] | significantly increased | – |
| Cc1c[nH]c(-c2cnc(NCCNc3ccc(C#N)cn3)nc2-c2ccc(Cl)cc2Cl)n1 [CHIR99021, 6-((2-((4-(2,4-Dichlorophenyl)-5-(4-methyl-1H-imidazol-2-yl)pyrimidin-2-yl)amino)ethyl)amino)nicotinonitrile] | not Axin1 | No undifferentiated colonies formed |
